The source of these data is PubChem BioAssay AID1259407 (Chemical Carcinogenesis Research Information System (CCRIS), 2018).

Activity calls are given as the source filed them. No rule for the calls is given here.

The series concerns CCRIS mutagenicity, Ames/micronucleus/aberration tests. Briefly: CCRIS mutagenicity studies.
Setting [1] is: Test System: AMES SALMONELLA TYPHIMURIUM, Strain/Indicator: TA98, Metabolic Activation: NONE, Method: PREINCUBATION
The mark [2] stands for this setting: Test System: AMES SALMONELLA TYPHIMURIUM, Strain/Indicator: TA100, Metabolic Activation: NONE, Method: PREINCUBATION
The mark [3] stands for this setting: Test System: AMES SALMONELLA TYPHIMURIUM, Strain/Indicator: TA1535, Metabolic Activation: NONE, Method: PREINCUBATION
Where [4] appears, read: Test System: AMES SALMONELLA TYPHIMURIUM, Strain/Indicator: TA100, Metabolic Activation: NONE, Method: STANDARD PLATE.

Turning to `C/C=C/C=O`, the mutagenic call runs as follows: (End Point: IN VITRO CHROMOSOMAL ABERRATIONS, Test System: CHINESE HAMSTER OVARY CELLS, Metabolic Activation: NONE) “active; positive”; (End Point: IN VITRO CHROMOSOMAL ABERRATIONS, Test System: CHINESE HAMSTER OVARY CELLS, Metabolic Activation: RAT, LIVER, S-9, AROCLOR 1254) “active; positive”; (End Point: IN VITRO CHROMOSOMAL ABERRATIONS, Test System: CHL CELLS, Metabolic Activation: RAT, LIVER, S-9, SODIUM PHENOBARBITAL AND 5,6-BENZOFLAVONE) “active; positive (structural changes)”; (End Point: In vivo chromosomal aberrations, Test System: Bone marrow, Species: Mouse, Strain/Sex: Swiss/ 3 males and 2 females per group, Route: Intraperitoneal) “active; positive (statistically significant at all doses and durations) (structural aber”; (End Point: In vivo chromosomal aberrations, Test System: Spermatocytes, Species: Mouse, Strain/Sex: Swiss/males, Route: Intraperitoneal) “active; positive (dose-related) (autosomal univalents, x-y univalents, fragments or brea”; (Test System: AMES SALMONELLA TYPHIMURIUM, Strain/Indicator: TA98, Metabolic Activation: NONE, Method: FLUCTUATION (MICROTITER)) “active; positive”. Moreover, the mutagenic call under setting [1] was “active; positive”; the mutagenic call (Test System: AMES SALMONELLA TYPHIMURIUM, Strain/Indicator: TA98, Metabolic Activation: RAT LIVER S-9, PHENOBARBITAL AND BETA-NAPHTHOFLAVONE, Method: PREINCUBATION) is “active; positive”; the mutagenic call (Test System: AMES SALMONELLA TYPHIMURIUM, Strain/Indicator: TA100, Metabolic Activation: NONE, Method: MODIFIED LIQUID SUSPENSION) is “active; positive”; the mutagenic call under setting [2] was “active; positive”; the mutagenic call (Test System: AMES SALMONELLA TYPHIMURIUM, Strain/Indicator: TA100, Metabolic Activation: NONE, Method: PREINCUBATION (THREEFOLD CELL DENSITY)) is “active; positive”; the mutagenic call (Test System: AMES SALMONELLA TYPHIMURIUM, Strain/Indicator: TA100, Metabolic Activation: RAT LIVER S-9, PHENOBARBITAL AND BETA-NAPHTHOFLAVONE, Method: PREINCUBATION) is “active; positive”. The mutagenic call is “active; positive” (Test System: AMES SALMONELLA TYPHIMURIUM, Strain/Indicator: TA100, Metabolic Activation: RAT, LIVER, S-9, AROCLOR 1254, Method: MODIFIED LIQUID SUSPENSION); “active; positive” (Test System: AMES SALMONELLA TYPHIMURIUM, Strain/Indicator: TA100, Metabolic Activation: RAT, LIVER, S-9, AROCLOR 1254, Method: PREINCUBATION (THREEFOLD CELL DENSITY)); “active; positive” (Test System: AMES SALMONELLA TYPHIMURIUM, Strain/Indicator: TA104, Metabolic Activation: NONE, Method: PREINCUBATION); “inactive; negative” under setting [3]; “inactive; negative” (Test System: AMES SALMONELLA TYPHIMURIUM, Strain/Indicator: TA1535, Metabolic Activation: RAT LIVER S-9, PHENOBARBITAL AND BETA-NAPHTHOFLAVONE, Method: PREINCUBATION); “inactive; negative” (Test System: AMES SALMONELLA TYPHIMURIUM, Strain/Indicator: TA1537, Metabolic Activation: NONE, Method: FLUCTUATION (MICROTITER)). The mutagenic call by setting is: (Test System: AMES SALMONELLA TYPHIMURIUM, Strain/Indicator: TA1537, Metabolic Activation: RAT LIVER S-9, PHENOBARBITAL AND BETA-NAPHTHOFLAVONE, Method: PREINCUBATION) “inactive; negative”; (Test System: AMES SALMONELLA TYPHIMURIUM, Strain/Indicator: TA7001, Metabolic Activation: NONE, Method: FLUCTUATION (MICROTITER)) “inactive; negative”; (Test System: AMES SALMONELLA TYPHIMURIUM, Strain/Indicator: TA7002, Metabolic Activation: NONE, Method: FLUCTUATION (MICROTITER)) “active; positive”; (Test System: AMES SALMONELLA TYPHIMURIUM, Strain/Indicator: TA7003, Metabolic Activation: NONE, Method: FLUCTUATION (MICROTITER)) “inactive; negative”; (Test System: AMES SALMONELLA TYPHIMURIUM, Strain/Indicator: TA7004, Metabolic Activation: NONE, Method: FLUCTUATION (MICROTITER)) “active; positive”; (Test System: AMES SALMONELLA TYPHIMURIUM, Strain/Indicator: TA7005, Metabolic Activation: NONE, Method: FLUCTUATION (MICROTITER)) “active; positive”. Besides, the mutagenic call is “active; positive” (Test System: AMES SALMONELLA TYPHIMURIUM, Strain/Indicator: TA7006, Metabolic Activation: NONE, Method: FLUCTUATION (MICROTITER)); “inactive; negative” (Test System: CHINESE HAMSTER OVARY, Strain/Indicator: AS52/6-THIOGUANINE, Metabolic Activation: NONE, Method: STANDARD PLATE); “inactive; negative” (Test System: E.COLI, Strain/Indicator: WP2UVRA, Metabolic Activation: NONE, Method: PREINCUBATION); “inactive; negative” (Test System: E.COLI, Strain/Indicator: WP2UVRA, Metabolic Activation: RAT LIVER S-9, PHENOBARBITAL AND BETA-NAPHTHOFLAVONE, Method: PREINCUBATION).
With `CCCCON(OC(C)=O)C(=O)c1ccc(C(C)(C)C)cc1`, the mutagenic call by setting is: under setting [4], “active; positive”; (Test System: AMES SALMONELLA TYPHIMURIUM, Strain/Indicator: TA100, Metabolic Activation: RAT, S-9, AROCLOR, Method: STANDARD PLATE) “active; positive”.
As to `COc1cc(N=Nc2ccc(N)cc2)c(C)cc1N=Nc1c(S(=O)(=O)O)cc2ccc(N)cc2c1O`, the mutagenic call (Test System: AMES SALMONELLA TYPHIMURIUM, Strain/Indicator: TA98, Metabolic Activation: NONE, Method: STANDARD PLATE) was “inactive; negative”; the mutagenic call (Test System: AMES SALMONELLA TYPHIMURIUM, Strain/Indicator: TA98, Metabolic Activation: RAT, LIVER, S-9, AROCLOR 1254, Method: STANDARD PLATE) is “active; positive”; the mutagenic call under setting [4] was “inactive; negative”; the mutagenic call (Test System: AMES SALMONELLA TYPHIMURIUM, Strain/Indicator: TA100, Metabolic Activation: RAT, LIVER, S-9, AROCLOR 1254, Method: STANDARD PLATE) is “active; positive”; the mutagenic call (Test System: AMES SALMONELLA TYPHIMURIUM, Strain/Indicator: TA1538, Metabolic Activation: NONE, Method: STANDARD PLATE) was “inactive; negative”; the mutagenic call (Test System: AMES SALMONELLA TYPHIMURIUM, Strain/Indicator: TA1538, Metabolic Activation: RAT, LIVER, S-9, AROCLOR 1254, Method: STANDARD PLATE) was “active; positive”.
Regarding `C=CC1CC2C=CC1C2` (stereo unspecified), the mutagenic call runs as follows: under setting [1], “inactive; negative”; (Test System: AMES SALMONELLA TYPHIMURIUM, Strain/Indicator: TA98, Metabolic Activation: RAT LIVER S-9, AROCLOR 1254, Method: PREINCUBATION) “inactive; negative”; under setting [2], “inactive; negative”; (Test System: AMES SALMONELLA TYPHIMURIUM, Strain/Indicator: TA100, Metabolic Activation: RAT LIVER S-9, AROCLOR 1254, Method: PREINCUBATION) “inactive; negative”; under setting [3], “inactive; negative”; (Test System: AMES SALMONELLA TYPHIMURIUM, Strain/Indicator: TA1535, Metabolic Activation: RAT LIVER S-9, AROCLOR 1254, Method: PREINCUBATION) “inactive; negative”. Further, the mutagenic call by setting is: (Test System: AMES SALMONELLA TYPHIMURIUM, Strain/Indicator: TA1537, Metabolic Activation: NONE, Method: PREINCUBATION) “inactive; negative”; (Test System: AMES SALMONELLA TYPHIMURIUM, Strain/Indicator: TA1537, Metabolic Activation: RAT LIVER S-9, AROCLOR 1254, Method: PREINCUBATION) “inactive; negative”; (Test System: AMES SALMONELLA TYPHIMURIUM, Strain/Indicator: TA1538, Metabolic Activation: NONE, Method: PREINCUBATION) “inactive; negative”; (Test System: AMES SALMONELLA TYPHIMURIUM, Strain/Indicator: TA1538, Metabolic Activation: RAT LIVER S-9, AROCLOR 1254, Method: PREINCUBATION) “inactive; negative”; (Test System: CHINESE HAMSTER OVARY, Strain/Indicator: CHO-K1-BH4 (HGPRT)/6-THIOGUANINE, Metabolic Activation: NONE) “inactive; negative”; (Test System: CHINESE HAMSTER OVARY, Strain/Indicator: CHO-K1-BH4 (HGPRT)/6-THIOGUANINE, Metabolic Activation: RAT LIVER S-9, AROCLOR 1254) “inactive; negative”.
As to `Oc1ccc2c(O)cccc2c1`, the mutagenic call is, setting by setting: (Test System: AMES SALMONELLA TYPHIMURIUM, Strain/Indicator: TA102, Metabolic Activation: NONE, Method: PREINCUBATION) “active; positive”; (Test System: AMES SALMONELLA TYPHIMURIUM, Strain/Indicator: TA2637, Metabolic Activation: RAT, LIVER, S-9, PHENOBARBITAL AND 5,6-BENZOFLAVONE, Method: PREINCUBATION) “active; positive”.
Consider `Oc1cccc2c3ccccc3c3cc4ccccc4cc3c12`, for which, where the note is “Test System: AMES SALMONELLA TYPHIMURIUM, Strain/Indicator: TA100, Metabolic Activation: RAT, LIVER, S-9, AROCLOR 1254, Method: PREINCUBATION”, the mutagenic call was “inactive; negative”.
